Measured values as given in US20260132127A1, “NOVEL SPIRO COMPOUND” (MITSUBISHI TANABE PHARMA CORPORATION, priority 2021, published 2026).

target: T1, human TRH-DE (Homo sapiens, UniProt Q9UKU6); assay: TRH-DE inhibition test (RapidFire MS measurement of product Cyclo (His-Pro)); assay type: biochemical; conditions: membrane fraction of Expi 293 cells expressing human TRH-DE; 10 μM TRH substrate; room temperature, 2 hours; 16-point concentration test
T1 construct: expressed in transfected cells; host or cells: Expi 293 cells (transient expression), membrane fraction
T1 sequence (Q9UKU6 1-1069): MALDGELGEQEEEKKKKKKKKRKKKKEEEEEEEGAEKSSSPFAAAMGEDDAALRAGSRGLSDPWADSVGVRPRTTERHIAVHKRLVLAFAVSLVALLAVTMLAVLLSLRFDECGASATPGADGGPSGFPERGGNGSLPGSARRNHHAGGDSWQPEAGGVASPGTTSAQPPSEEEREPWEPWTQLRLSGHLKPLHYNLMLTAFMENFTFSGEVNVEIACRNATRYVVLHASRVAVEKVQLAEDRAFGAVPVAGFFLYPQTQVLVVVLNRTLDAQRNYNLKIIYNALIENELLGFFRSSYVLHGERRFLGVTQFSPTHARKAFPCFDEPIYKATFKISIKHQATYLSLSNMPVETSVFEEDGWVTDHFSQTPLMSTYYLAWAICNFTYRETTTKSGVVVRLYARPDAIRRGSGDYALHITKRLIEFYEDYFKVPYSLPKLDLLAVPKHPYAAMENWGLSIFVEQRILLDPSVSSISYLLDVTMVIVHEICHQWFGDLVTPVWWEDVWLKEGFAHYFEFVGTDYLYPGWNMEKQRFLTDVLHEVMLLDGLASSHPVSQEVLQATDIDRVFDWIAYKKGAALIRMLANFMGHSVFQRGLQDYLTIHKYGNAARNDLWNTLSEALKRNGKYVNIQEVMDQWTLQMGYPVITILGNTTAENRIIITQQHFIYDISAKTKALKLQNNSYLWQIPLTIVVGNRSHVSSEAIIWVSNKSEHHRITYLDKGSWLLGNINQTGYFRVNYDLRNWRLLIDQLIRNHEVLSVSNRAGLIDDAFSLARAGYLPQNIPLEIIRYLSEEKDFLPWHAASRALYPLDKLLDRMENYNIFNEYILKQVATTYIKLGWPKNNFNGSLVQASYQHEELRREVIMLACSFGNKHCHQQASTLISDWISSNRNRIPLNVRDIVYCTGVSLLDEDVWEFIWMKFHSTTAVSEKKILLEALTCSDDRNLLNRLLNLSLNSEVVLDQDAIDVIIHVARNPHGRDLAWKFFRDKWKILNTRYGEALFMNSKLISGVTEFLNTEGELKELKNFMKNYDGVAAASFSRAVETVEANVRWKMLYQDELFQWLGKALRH
Procedure: The compounds described in “1. […] The enzyme inhibitory activity of each of the compounds was evaluated by measuring the amount of the product Cyclo (His-Pro) of the enzyme reaction using a RapidFire RF 365 HTMS system (manufactured by Agilent Technologies, Inc.) connected to a triple quadrupole mass spectrometer (API 4000, manufactured by SCIEX). A membrane fraction prepared from Expi 293 cells transiently expressing human TRH-DE was used as an enzyme. The membrane fraction was suspended in 4 μg/ml of a reaction buffer (50 mM sodium phosphate (pH 7.4), 25 mM NaCl, 0.01% Triton […], and 200 μM bacitracin) and mixed with the test compound at each concentration. 10 μM […]), which was a substrate, was added, and the mixture was reacted at room temperature for 2 hours. The reaction was stopped in the same amount of a solution of acetonitrile:methanol (1:1) containing 1 μM of the stable isotope Cyclo ([…]) as an internal standard, and the supernatant was collected after centrifugation. In the RapidFire RF 365 HTMS system, a portion of the supernatant was aspirated, loaded onto a Graphic Carbon column (manufactured by Agilent Technologies, Inc.) with a buffer A (water, 0.09% formic acid, 0.01% trifluoroacetic acid) and washed with ultrapure water. Next, washing was performed with acetonitrile. The contents in the column were eluted with a buffer B (80% acetonitrile, 0.09% formic acid, 0.01% trifluoroacetic acid) and injected into a mass spectrometer for analysis. […] The ESI voltage was set to 5,500 V and the temperature was set to 650° C. For the calculation of the inhibition rate, a Ratio value corrected by dividing the product amount by the internal standard amount was used. The inhibition rate (%) was calculated by % Inhibition={1-(Ratio value of sample-Ratio value of blank)/(Ratio value of control-Ratio value of blank)}×100. The IC50 value was calculated from the concentration reactivity test at 16 points.

| SMILES | IC50 [nM] |
| --- | --- |
| C[C@@H]1COc2cc(N3CCC(C(F)(F)F)C3)ncc2C(=O)N1C1CC2(C1)CN(S(=O)(=O)c1ccccc1F)C2 (mixture of isomers) [Example 145] | 1 |
| C[C@@H]1COc2cc(N3CCCC3C(F)(F)F)ncc2C(=O)N1C1CC2(C1)CN(S(=O)(=O)c1ccccc1F)C2 (mixture of isomers) [Example 146] | 1 |
| CC1CCCN(c2cc3c(cn2)C(=O)N(C2CC4(C2)CN(S(=O)(=O)c2ccccc2F)C4)[C@H](C)CO3)C1 (mixture of isomers) [Example 152] | 1 |
| C[C@@H]1COc2nc(N3CCOC(C(F)(F)F)C3)ncc2C(=O)N1C1CC2(C1)CN(S(=O)(=O)c1ccccc1F)C2 (mixture of isomers) [Example 385] | 13 |
| CC1CN(c2ncc3c(n2)OC[C@@H](C)N(C2CC4(C2)CN(S(=O)(=O)c2ccccc2F)C4)C3=O)CCO1 (mixture of isomers) [Example 386] | 13 |
| C[C@@H]1COc2nc(N3CCC4(CCOC4)C3)ncc2C(=O)N1C1CC2(C1)CN(S(=O)(=O)c1ccccc1F)C2 (mixture of isomers) [Example 405] | 3 |
| C[C@@H]1COc2nc(N3CCCC34CCOC4)ncc2C(=O)N1C1CC2(C1)CN(S(=O)(=O)c1ccccc1F)C2 (mixture of isomers) [Example 406] | 6 |
| CC1CN(C2CC3(C2)CN(S(=O)(=O)c2ccccc2F)C3)C(=O)c2ncccc2O1 (racemic) [Example 2] | 1010 |
| CC1COc2ccc(F)nc2C(=O)N1C1CC2(C1)CN(S(=O)(=O)c1ccccc1F)C2 (racemic) [Example 9] | 14 |
| CC1COc2cc(F)cnc2C(=O)N1C1CC2(C1)CN(S(=O)(=O)c1ccccc1F)C2 (racemic) [Example 10] | 12 |
| Cc1ccc2c(n1)C(=O)N(C1CC3(C1)CN(S(=O)(=O)c1ccccc1F)C3)C(C)CO2 (racemic) [Example 14] | 24 |
| Cc1cnc2c(c1)OCC(C)N(C1CC3(C1)CN(S(=O)(=O)c1ccccc1F)C3)C2=O (racemic) [Example 15] | 7 |
| Cc1ccnc2c1OCC(C)N(C1CC3(C1)CN(S(=O)(=O)c1ccccc1F)C3)C2=O (racemic) [Example 16] | 20 |
| CC1COc2ccnc(F)c2C(=O)N1C1CC2(C1)CN(S(=O)(=O)c1ccccc1F)C2 (racemic) [Example 20] | 17 |
| CC1COc2c(F)cncc2C(=O)N1C1CC2(C1)CN(S(=O)(=O)c1ccccc1F)C2 (racemic) [Example 21] | 16 |
| CC1COc2ccnc(C(F)(F)F)c2C(=O)N1C1CC2(C1)CN(S(=O)(=O)c1ccccc1F)C2 (racemic) [Example 23] | 68 |
| CC1COc2nccc(F)c2C(=O)N1C1CC2(C1)CN(S(=O)(=O)c1ccccc1F)C2 (racemic) [Example 25] | 54 |
| CC1COc2ncc(F)cc2C(=O)N1C1CC2(C1)CN(S(=O)(=O)c1ccccc1F)C2 (racemic) [Example 26] | 33 |
| CC1COc2nc(F)ccc2C(=O)N1C1CC2(C1)CN(S(=O)(=O)c1ccccc1F)C2 (racemic) [Example 28] | 23 |
| Cc1ccnc2c1C(=O)N(C1CC3(C1)CN(S(=O)(=O)c1ccccc1F)C3)C(C)CO2 (racemic) [Example 29] | 50 |
| Cc1cnc2c(c1)C(=O)N(C1CC3(C1)CN(S(=O)(=O)c1ccccc1F)C3)C(C)CO2 (racemic) [Example 30] | 15 |
| Cc1ccc2c(n1)OCC(C)N(C1CC3(C1)CN(S(=O)(=O)c1ccccc1F)C3)C2=O (racemic) [Example 31] | 9 |
| CC1c2ccccc2CCC(=O)N1C1CC2(C1)CN(S(=O)(=O)c1ccccc1F)C2 (racemic) [Example 45, 2-[2-(2-fluorophenyl)sulfonyl-2-azaspiro[3,3]heptan-6-yl]-1-methyl-4,5-dihydro-1H-2-benzazepin-3-one] | 214 |
| CC1c2ccccc2OCC(=O)N1C1CC2(C1)CN(S(=O)(=O)c1ccccc1F)C2 (racemic) [Example 46] | 129 |

| SMILES | IC50 [nM] |
| --- | --- |
| CC1c2ccccc2NCC(=O)N1C1CC2(C1)CN(S(=O)(=O)c1ccccc1F)C2 (racemic) [Example 47] | 544 |
| CC1COc2cccnc2C(=O)N1C1CC2(C1)CN(S(=O)(=O)c1ccccc1F)C2 (racemic) [Example 49] | 6 |
| CCC1COc2cccnc2C(=O)N1C1CC2(C1)CN(S(=O)(=O)c1ccccc1F)C2 (racemic) [Example 50] | 19 |
| CC1COc2ccncc2C(=O)N1C1CC2(C1)CN(S(=O)(=O)c1ccccc1F)C2 (racemic) [Example 51] | 8 |
| CCC1COc2ccncc2C(=O)N1C1CC2(C1)CN(S(=O)(=O)c1ccccc1F)C2 (racemic) [Example 52] | 22 |
| CC1COc2cnccc2C(=O)N1C1CC2(C1)CN(S(=O)(=O)c1ccccc1F)C2 (racemic) [Example 54] | 14 |
| CCC1COc2ncccc2C(=O)N1C1CC2(C1)CN(S(=O)(=O)c1ccccc1F)C2 (racemic) [Example 59] | 33 |
| CC1COc2ncccc2C(=O)N1C1CC2(C1)CN(S(=O)(=O)c1ccccc1F)C2 (racemic) [Example 63] | 22 |
| CC1COc2ccsc2C(=O)N1C1CC2(C1)CN(S(=O)(=O)c1ccccc1F)C2 (racemic) [Example 64] | 10 |
| CC1Cc2cccnc2C(=O)N1C1CC2(C1)CN(S(=O)(=O)c1ccccc1F)C2 (racemic) [Example 65] | 27 |
| CC1Cc2ncccc2C(=O)N1C1CC2(C1)CN(S(=O)(=O)c1ccccc1F)C2 (racemic) [Example 66] | 31 |
| CC1Cc2nc(C(F)(F)F)ccc2C(=O)N1C1CC2(C1)CN(S(=O)(=O)c1ccccc1F)C2 (racemic) [Example 67] | 77 |
| CC1Cc2ccccc2OC(=O)N1C1CC2(C1)CN(S(=O)(=O)c1ccccc1F)C2 (racemic) [Example 71] | 126 |
| CC1COc2ncccc2C(=O)N1C1CC2(C1)CN(S(=O)(=O)c1cccc(F)c1)C2 (racemic) [Example 72] | 841 |
| CC1COc2ncccc2C(=O)N1C1CC2(C1)CN(S(=O)(=O)c1ccccc1Cl)C2 (racemic) [Example 73] | 92 |
| COc1cccc(S(=O)(=O)N2CC3(CC(N4C(=O)c5cccnc5OCC4C)C3)C2)c1 (racemic) [Example 74] | 918 |
| COc1ccc(S(=O)(=O)N2CC3(CC(N4C(=O)c5cccnc5OCC4C)C3)C2)cc1 (racemic) [Example 75] | 120 |
| Cc1ccccc1S(=O)(=O)N1CC2(CC(N3C(=O)c4cccnc4OCC3C)C2)C1 (racemic) [Example 76] | 566 |
| Cc1cccc(S(=O)(=O)N2CC3(CC(N4C(=O)c5cccnc5OCC4C)C3)C2)c1 (racemic) [Example 77] | 324 |
| CC1COc2ncccc2C(=O)N1C1CC2(C1)CN(S(=O)(=O)c1ccccc1C(F)(F)F)C2 (racemic) [Example 78] | 2330 |
| CC1COc2ncccc2C(=O)N1C1CC2(C1)CN(S(=O)(=O)c1ccc(F)cc1)C2 (racemic) [Example 80] | 295 |
| CC1COc2ncccc2C(=O)N1C1CC2(C1)CN(S(=O)(=O)c1cccs1)C2 (racemic) [Example 81] | 670 |
| CC1CCc2cc(C(F)(F)F)cnc2C(=O)N1C1CC2(C1)CN(S(=O)(=O)c1ccccc1F)C2 (racemic) [Example 86] | 60 |
